Molecular target: T1, Sodium-dependent serotonin transporter (Rattus norvegicus, UniProt P31652)
Test: Compound was evaluated for its ability to displace [3H]citalopram binding to the rat cortical Serotonin transporter

T1 sequence (P31652 whole entry): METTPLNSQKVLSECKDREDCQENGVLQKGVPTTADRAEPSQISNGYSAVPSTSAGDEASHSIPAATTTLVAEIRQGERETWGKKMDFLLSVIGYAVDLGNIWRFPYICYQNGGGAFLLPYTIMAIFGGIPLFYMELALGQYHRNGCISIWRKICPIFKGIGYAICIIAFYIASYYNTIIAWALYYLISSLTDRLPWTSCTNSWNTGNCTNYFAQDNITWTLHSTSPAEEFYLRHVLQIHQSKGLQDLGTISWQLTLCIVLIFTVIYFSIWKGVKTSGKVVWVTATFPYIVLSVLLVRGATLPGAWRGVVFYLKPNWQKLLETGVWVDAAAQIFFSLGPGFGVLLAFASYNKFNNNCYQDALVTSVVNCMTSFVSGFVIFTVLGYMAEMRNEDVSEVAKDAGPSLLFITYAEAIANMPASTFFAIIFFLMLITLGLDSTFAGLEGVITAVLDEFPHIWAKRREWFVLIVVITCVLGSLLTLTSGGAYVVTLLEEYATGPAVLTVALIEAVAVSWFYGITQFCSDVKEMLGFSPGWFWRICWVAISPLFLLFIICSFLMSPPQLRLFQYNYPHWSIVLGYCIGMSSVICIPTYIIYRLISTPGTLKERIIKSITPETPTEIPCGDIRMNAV

`O=CN1CCN(c2cc(Br)c3cc([N+](=O)[O-])ccc3n2)CC1` was tested, and the Ki was 1.73 nM.

Molecular target: T1, Sodium-dependent serotonin transporter
Test: Displacement of [3H]citalopram from rat cortical serotonin transporter (SERT)

`C=CCc1cc(N2CCNCC2)nc2ccc([N+](=O)[O-])cc12` and `C=Cc1cc(N2CCNCC2)nc2ccc([N+](=O)[O-])cc12` are within 1.5-fold of each other in Ki: 1.67 nM for the first, 1.82 nM for the second.

Compared with `O=[N+]([O-])c1ccc2nc(N3CCNCC3)cc(-c3cccs3)c2c1`, `O=[N+]([O-])c1ccc2nc(N3CCNCC3)cc(-c3ccco3)c2c1` is 13-fold lower in Ki: 67.2 nM for the first, 5.23 nM for the second.

First: O=[N+]([O-])c1ccc2nc(N3CCNCC3)cc(Br)c2c1
Second: O=[N+]([O-])c1ccc2nc(N3CCNCC3)cc(I)c2c1
The Ki of the first is 4.7-fold lower: 0.37 nM for the first, 1.73 nM for the second. The first binds more tightly here.

Compared with `O=[N+]([O-])c1ccc2nc(N3CCNCC3)cc(N3CCCC3)c2c1`, `O=[N+]([O-])c1ccc2nc(N3CCNCC3)cc(Cl)c2c1` is 2000-fold lower in Ki: 61.1 nM for the first, 0.03 nM for the second. The second binds more tightly here.

First: CN(C)Cc1ccccc1Sc1ccc(I)cc1N
Second: O=[N+]([O-])c1ccc2nc(N3CCNCC3)cc(Cc3ccccc3)c2c1
The Ki of the first is 9800-fold lower: 0.013 nM for the first, 127 nM for the second. The first binds more tightly here.

For `O=[N+]([O-])c1ccc2nc(N3CCNCC3)cc(-c3ccccc3)c2c1`, the Ki was 60 nM.
